Test results reported in ChEMBL document CHEMBL1201862, “PubChem BioAssay data set” (2004).
The source made the active and inactive calls.

Tests used:
[1] = Trypanosoma cruzi growth suppression in host cells – NIH3T3 host cells, beta-gal luminescence, confirmation (AID 2044); format: functional, cell-based;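 also: intracellular parasites grown in NIH/3T3 mouse fibroblasts as host cells; luminescent beta-galactosidase reporter signal from transgenic T. cruzi replicating inside host cells; inhibitors lower the luminescence signal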
[2] = NIH3T3 cell viability loss – ATP luminescence, mouse fibroblasts, counter-screen, dose response (AID 2010); format: functional, cell-based;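 also: cells exposed to compound for about 90 hours before reading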
[3] = viability loss in HeLa cells – cytotoxicity control for MgcRacGAP inhibitor project, dose response (AID 624300); format: functional
[4] = target: T1, Rac GTPase-activating protein 1 (Homo sapiens, UniProt Q9H0H5); test: blockers of MgcRacGAP-driven Rac1 GTP hydrolysis – biochemical, ADP Hunter fluorescence, primary and confirmatory, confirmation (AID 624330); format: functional
T1 sequence (Q9H0H5 whole entry): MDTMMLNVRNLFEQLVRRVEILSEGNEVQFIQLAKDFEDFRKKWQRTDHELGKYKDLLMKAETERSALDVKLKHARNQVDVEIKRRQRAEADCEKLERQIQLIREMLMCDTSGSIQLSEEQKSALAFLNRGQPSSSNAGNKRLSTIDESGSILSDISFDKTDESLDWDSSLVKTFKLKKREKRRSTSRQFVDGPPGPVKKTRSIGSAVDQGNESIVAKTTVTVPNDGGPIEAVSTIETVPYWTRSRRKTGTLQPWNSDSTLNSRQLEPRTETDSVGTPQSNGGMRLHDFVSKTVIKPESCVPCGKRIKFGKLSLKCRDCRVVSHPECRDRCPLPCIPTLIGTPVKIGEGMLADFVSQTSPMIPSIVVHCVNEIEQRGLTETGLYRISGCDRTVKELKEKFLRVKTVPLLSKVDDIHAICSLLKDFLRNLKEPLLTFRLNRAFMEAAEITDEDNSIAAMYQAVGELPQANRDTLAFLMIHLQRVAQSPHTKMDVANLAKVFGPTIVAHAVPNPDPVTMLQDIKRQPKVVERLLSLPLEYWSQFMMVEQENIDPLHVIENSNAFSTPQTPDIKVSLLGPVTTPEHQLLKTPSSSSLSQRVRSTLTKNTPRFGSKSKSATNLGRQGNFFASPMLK

[5] = target: T2, Sentrin-specific protease 8 (Homo sapiens, UniProt Q96LD8); format: functional
T2 sequence (Q96LD8 whole entry): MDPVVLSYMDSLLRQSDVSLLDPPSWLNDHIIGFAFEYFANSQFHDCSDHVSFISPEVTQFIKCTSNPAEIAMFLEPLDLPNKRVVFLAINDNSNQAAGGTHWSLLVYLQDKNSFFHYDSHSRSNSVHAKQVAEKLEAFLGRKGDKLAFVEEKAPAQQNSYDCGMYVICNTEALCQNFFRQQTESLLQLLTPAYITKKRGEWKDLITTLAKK

[6] = target: T2, Sentrin-specific protease 8; format: functional; remark: listed apart in the source
[7] = reduction of Shn3 3'UTR-driven luciferase in osteoblasts – cell-based, Clone20 osteoblasts, firefly luciferase, cherry-picked, dose response (AID 624132); format: functional;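 also: firefly luciferase luminescence from reporter carrying the Shn3 3'UTR in osteoblasts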
[8] = loss of viability in HepG2 cells – cell-based, CellTiter-Glo, cherry-picked, cytotoxicity control for Shn3 inhibitor project, dose response (AID 624134); format: functional
[9] = non-specific 3'UTR reporter inhibition in Clone20-Shn3RL – cell-based, Renilla luciferase, cherry-picked, counter-screen for Shn3 inhibitor project, dose response (AID 624133); format: functional
[10] = blockers of HIV-1 envelope-mediated cell-cell fusion – cherry-pick, dose response (AID 652057); format: functional, cell-based
[11] = viability loss in CEM21 cells – cell-based, CellTiter-Glo luminescence, cherry-picked, cytotoxicity control for viral fusion inhibitor project, dose response (AID 652042); format: functional;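 also: potency for signal decrease meaning cytotoxicity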
[12] = blockers of HIV-1 ZM109 envelope-driven cell-cell fusion – HeLa effector, CEM target cells, luciferase, cherry-pick, dose response (AID 652058); format: functional, cell-based;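 also: luciferase signal from HIV-1 Env mediated cell-cell fusion of effector and target cells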
[13] = off-target signal loss in HeLa-CEM21 co-culture – HeLa F-luc CTL cells, cherry-picked, counter-screen for HIV-1 Env fusion inhibitor project, dose response (AID 652040); format: functional, cell-based;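 also: potency for signal decrease marking cytotoxic or nonspecific inhibition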
[14] = HIV-1 AD8 envelope cell-cell fusion blockers – cherry-pick, dose response (AID 652062); format: functional, cell-based;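 also: luciferase signal from cell-cell fusion driven by HIV-1 clade B AD8 Env; potency is for inhibitors of fusion seen as a drop in luminescence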
Cytochrome P450 1A2 = target: T3, Cytochrome P450 1A2 (Homo sapiens, UniProt P05177);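 also: PubChem cytochrome P450 panel assay, CYP1A2 panel member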
T3 sequence (P05177 whole entry): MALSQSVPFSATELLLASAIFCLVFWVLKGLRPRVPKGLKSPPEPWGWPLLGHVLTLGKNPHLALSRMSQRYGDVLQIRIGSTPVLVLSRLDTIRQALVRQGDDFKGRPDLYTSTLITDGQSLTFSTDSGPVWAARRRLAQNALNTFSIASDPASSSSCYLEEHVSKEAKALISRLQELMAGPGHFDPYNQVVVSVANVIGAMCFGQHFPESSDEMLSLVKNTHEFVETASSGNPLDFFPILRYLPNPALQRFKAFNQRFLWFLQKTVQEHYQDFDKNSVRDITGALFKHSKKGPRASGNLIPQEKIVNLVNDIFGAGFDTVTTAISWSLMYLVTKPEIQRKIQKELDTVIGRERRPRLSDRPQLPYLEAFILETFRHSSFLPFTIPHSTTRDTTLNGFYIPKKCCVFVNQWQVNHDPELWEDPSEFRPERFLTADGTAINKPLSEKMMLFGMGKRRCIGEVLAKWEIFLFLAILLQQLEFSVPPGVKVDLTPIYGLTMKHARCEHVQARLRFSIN

HEK293 [15] = test: cells; settings: Homo sapiens
HEK293 [16] = test: cells; settings: Homo sapiens; remark: listed apart in the source
[17] = test system: Streptococcus sp. 'group A'; test: Streptococcus pyogenes SK(-)GAS viability under kanamycin – luminescence, BacTiterGlo, confirmation, counter-screen for streptokinase expression inhibitor project, dose response (AID 1900); format: functional, organism-based
Streptokinase A = target: T4, Streptokinase A (Streptococcus pyogenes serotype M1, UniProt P10520); test: viability-normalized secreted streptokinase activity reduction – plasminogen activation absorbance, OD405, dose response (AID 1914); format: functional, Streptococcus pyogenes M1 GAS;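 also: secreted streptokinase activity via plasminogen activation per viability signal from cell pellet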
T4 sequence (P10520 whole entry): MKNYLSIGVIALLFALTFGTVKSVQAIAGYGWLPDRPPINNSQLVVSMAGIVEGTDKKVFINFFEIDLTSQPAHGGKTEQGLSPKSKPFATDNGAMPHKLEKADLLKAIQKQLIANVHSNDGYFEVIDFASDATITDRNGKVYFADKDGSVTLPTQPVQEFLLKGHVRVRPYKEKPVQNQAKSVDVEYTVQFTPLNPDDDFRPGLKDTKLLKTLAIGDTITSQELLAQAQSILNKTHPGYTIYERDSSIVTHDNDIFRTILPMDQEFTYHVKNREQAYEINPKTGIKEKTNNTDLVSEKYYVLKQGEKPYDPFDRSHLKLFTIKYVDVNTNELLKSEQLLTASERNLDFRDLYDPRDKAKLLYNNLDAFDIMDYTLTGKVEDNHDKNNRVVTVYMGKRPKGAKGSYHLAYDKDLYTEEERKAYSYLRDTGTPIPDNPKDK

Streptococcus = test: GAS UMAA2166 growth inhibition – luminescence, BacTiterGlo, counter-screen for streptokinase expression inhibitor project, dose response (AID 1915); format: functional, organism-based;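 also: potency for reduction of bacterial viability or growth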
[18] = target: T5, Small ubiquitin-related modifier 1 (Homo sapiens, UniProt P63165); test: SUMO1 protein interaction blockers, potency – biochemical, fluorescence polarization, uHTS hits, dose response (AID 624382); format: functional; settings: read-out: IC50_Mean
[19] = target: T5, Small ubiquitin-related modifier 1; test: SUMO1 protein-protein binding blockers, potency – biochemical, FRET, dose response (AID 624383); format: functional; settings: read-out: IC50_Mean
[20] = target: T6, Microphthalmia-associated transcription factor (Homo sapiens, UniProt O75030); test: reducers of TRPM1 reporter luminescence, concentration series – cell-based, SK-MEL-5, cherry-picked, set 3, MITF inhibitor project, dose response (AID 493073); format: functional;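 also: SK-MEL-5 melanoma cells with luciferase driven by the MITF target TRPM1 promoter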
T6 sequence (O75030 whole entry): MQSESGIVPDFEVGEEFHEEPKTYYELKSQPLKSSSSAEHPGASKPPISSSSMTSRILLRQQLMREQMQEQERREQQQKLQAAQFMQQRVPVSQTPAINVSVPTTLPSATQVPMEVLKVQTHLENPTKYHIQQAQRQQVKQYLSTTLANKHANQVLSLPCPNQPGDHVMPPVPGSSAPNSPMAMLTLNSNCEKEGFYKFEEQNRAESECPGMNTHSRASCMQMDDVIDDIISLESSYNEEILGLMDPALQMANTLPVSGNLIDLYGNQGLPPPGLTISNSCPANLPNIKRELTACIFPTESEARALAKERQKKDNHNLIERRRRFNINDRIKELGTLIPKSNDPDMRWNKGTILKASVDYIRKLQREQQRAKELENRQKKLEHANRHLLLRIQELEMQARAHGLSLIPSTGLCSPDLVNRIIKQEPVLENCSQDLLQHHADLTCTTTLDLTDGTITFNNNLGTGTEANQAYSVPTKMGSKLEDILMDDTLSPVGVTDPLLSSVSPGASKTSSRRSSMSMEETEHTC

[21] = target: T7, Long-chain-fatty-acid--AMP ligase FadD28 (Mycobacterium tuberculosis, UniProt P9WQ59); test: Fluorescence polarization aasay to screen for inhibitors that compete for the binding of FadD28 to a bisubstrate Measured in Biochemical System Using Plate Reader - 2147-01_Inhibitor_Dose_CherryPick_Activity.; format: functional, Mycobacterium tuberculosis H37Rv
T7 sequence (P9WQ59 whole entry): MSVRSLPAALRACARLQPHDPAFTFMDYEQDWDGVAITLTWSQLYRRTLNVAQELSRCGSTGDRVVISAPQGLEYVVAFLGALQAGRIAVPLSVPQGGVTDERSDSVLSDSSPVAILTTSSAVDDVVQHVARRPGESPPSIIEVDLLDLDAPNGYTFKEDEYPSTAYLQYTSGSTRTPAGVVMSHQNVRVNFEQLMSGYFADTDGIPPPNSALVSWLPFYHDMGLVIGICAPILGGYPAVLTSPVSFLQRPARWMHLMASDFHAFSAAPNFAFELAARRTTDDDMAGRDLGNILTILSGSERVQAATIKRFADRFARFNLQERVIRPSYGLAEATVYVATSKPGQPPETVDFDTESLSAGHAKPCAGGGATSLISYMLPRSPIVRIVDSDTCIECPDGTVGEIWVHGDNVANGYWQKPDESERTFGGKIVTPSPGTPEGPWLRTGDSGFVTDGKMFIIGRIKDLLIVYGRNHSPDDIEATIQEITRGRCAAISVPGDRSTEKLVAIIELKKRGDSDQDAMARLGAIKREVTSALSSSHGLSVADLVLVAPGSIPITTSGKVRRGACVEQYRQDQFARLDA

T5 sequence (P63165 whole entry): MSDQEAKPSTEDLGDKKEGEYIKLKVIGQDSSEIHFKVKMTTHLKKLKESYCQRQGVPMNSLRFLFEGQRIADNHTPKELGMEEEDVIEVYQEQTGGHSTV

Compound: COc1ccc(Br)cc1CNCCc1cccc(Cl)c1
- EC50 [1]: 1.12 µM (active)
- EC50 [2]: > 60 µM (not active)
- CC50 [3]: 100 µM (active)
- IC50 [4]: 130 µM (active)

Compound: O=C(CCCn1c(=O)oc2ccccc21)N1CCc2ccccc2C1
- IC50 [5]: > 100 µM (inactive)
- IC50 [6]: 8 µM (active)

Compound: O=C(Nc1ccc(Oc2ccccc2)cc1)C1CCN(c2c3c(nc4ncnn24)CCC3)CC1
- AC50 [7]: 5.64 µM (active)
- AC50 [8]: 7.3 µM (active)
- AC50 [9]: 10.5 µM (active)
- AC50 [10]: 3.83 µM (active)
- AC50 [11]: 42.7 µM (active)
- AC50 [12]: 9.59 µM (active)
- AC50 [13]: > 32 µM (inactive)
- AC50 [14]: 4.29 µM (active)
- AC50 (Cytochrome P450 1A2): 15.8 µM (inconclusive)

Compound: CCC(C)(C)NC(=O)C(NS(=O)(=O)c1cccs1)c1ccccc1 (configuration not stated)
- AC50 [10]: 4.25 µM (active)
- AC50 [12]: 4.71 µM (active)
- AC50 [13]: 4.24 µM (active)
- AC50 [14]: 5.84 µM (active)
- EC50 (HEK293 [15]): > 59.6 µM (inactive)
- EC50 (HEK293 [16]): > 59.6 µM (inactive)

Compound: Cc1cccc(NC(=O)c2cc3n(n2)C(C(F)(F)F)CC(c2ccc4c(c2)OCO4)N3)c1 (configuration not stated)
- EC50 [17]: 12.9 µM (active)
- EC50 (Streptokinase A): 28.7 µM (active)
- EC50 (Streptococcus): 139 µM (active)
- AC50 [10]: 7.49 µM (active)
- AC50 [11]: 61 µM (active)
- AC50 [12]: 7.75 µM (active)
- AC50 [13]: 4.41 µM (active)
- AC50 [14]: 17 µM (active)

Compound: NNc1ccc([N+](=O)[O-])c2n[nH]c(O)c12
- IC50 [18]: > 66.6 µM (inactive)
- IC50 [19]: 5.04 µM (active)
- IC50 [4]: 76.8 µM (active)

Compound: O=C(O)c1cccc(N/N=C/c2ccc(OC(F)(F)F)cc2)c1
- AC50 [20]: 5.95 µM (active)
- AC50 [21]: 39.7 µM (active)

Compound: COc1cc(/C=N/NC(=O)CN(Cc2ccccc2)S(=O)(=O)c2ccc3c(c2)OCCO3)ccc1O
- AC50 [21]: > 100 µM (inactive)
- CC50 [3]: 100 µM (active)
- IC50 [4]: 74.6 µM (active)
